Test results reported in patent publication US10968193B2, “Antidiabetic bicyclic compounds” (Merck Sharp & Dohme Corp., priority 2014, dated 2021).
pEC50: −log10 of the molar value. Where “and” joins values, the source holds several entries; their conditions need not be identical. Equal values may be shown once.

molecular target: T1, human GPR40 (Homo sapiens, UniProt O14842); assay: Inositol Phosphate Turnover (IP1) Assay 2; assay type: cell-based; settings: HEK cells stably expressing human GPR40; 15,000 cells per well; compound acoustically transferred; CisBio IP-One kit
T1 construct: expressed in transfected cells; host or cells: HEK cells stably expressing the aequorin reporter
T1 sequence (O14842 whole entry): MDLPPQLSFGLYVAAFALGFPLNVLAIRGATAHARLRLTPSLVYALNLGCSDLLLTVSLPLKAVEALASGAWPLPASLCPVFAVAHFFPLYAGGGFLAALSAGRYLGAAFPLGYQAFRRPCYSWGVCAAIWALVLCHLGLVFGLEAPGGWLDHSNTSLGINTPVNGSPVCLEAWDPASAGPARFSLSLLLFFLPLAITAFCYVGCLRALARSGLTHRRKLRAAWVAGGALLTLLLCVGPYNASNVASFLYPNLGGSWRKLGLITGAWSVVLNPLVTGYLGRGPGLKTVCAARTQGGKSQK
Protocol: Human and mouse GPR40 stable cell-lines were generated in CHO cells stably expressing NFAT BLA (Beta-lactamase). A human GPR40 stable cell-line was generated in HEK cells stably expressing the aequorin expressing reporter. The expression plasmids were transfected using lipofectamine (Life Technologies) following manufacturer's instructions. Stable cell-lines were generated following drug selection.
Inositol Phosphate Turnover (IP1) Assay 2:
The assay was performed in 384-well format. HEK cells stably expressing human GPR40 were plated at 15,000 cells per well in growth medium (DMEM/10% fetal calf serum). Cell plates were then incubated 16 hours at 37 degrees in a 5% CO2 incubator.
Measurement of Inositol Phosphate Turnover (IP1) was performed using the CisBio IP-One kit (Part number 62IPAPEB). After the 16 hour incubation, the cells were washed with HEPES buffer and 10 ul of stimulation buffer (prepared as described in the kit) was added to each well. In a separate plate, compounds were diluted in DMSO (400-fold over the final concentration in the assay well) and 25 nl was acoustically transferred to the appropriate well in the assay cell plate. The plates were then incubated for 60 minutes at 37 degrees. 10 ul of detection buffer (also prepared as described in the IP-One kit) was added to each well and the plates were incubated for 60 minutes in the dark. The plates were then read in a Perkin Elmer EnVision or equivalent reader able to measure FRET. Fluorescent ratio of emission at 665 and 620 nm was then converted to IP1 concentration by back calculating from an IP1 standard curve prepared at the time of the assay.

Q: With COc1cc(-c2ccc(C3CCc4ccc([C@H](C5CC5)[C@H](C)C(=O)O)cc4O3)cc2CN2CCOC[C@@H]2C)c(F)cn1 (some centres unmarked) [Example 51] as the molecule, how does the pEC50 read?
A: 9.00

Q: With COc1cc(-c2ccc(C3CCc4ccc([C@H](C5CC5)[C@H](C)C(=O)O)cc4O3)cc2CN2CC[C@H](F)C2)c(F)cn1 (single isomer, unassigned) [Example 25] as the molecule, how does the pEC50 read?
A: 8.64

Q: With COc1cc(-c2ccc([C@H]3CCc4ccc([C@H](C5CC5)[C@H](C)C(=O)O)cc4O3)cc2CN2CCC(C)(C)CC2)c(F)cn1 [Example 169] as the molecule, how does the pEC50 read?
A: 8.77

Q: How did the pEC50 turn out when COc1cc(-c2ccc(C3CCc4ccc([C@H](C5CC5)[C@H](C)C(=O)O)cc4O3)cc2CN2CC[C@@H](OC)C2)c(F)cn1 (some centres unmarked) [Example 18] was run?
A: 7.96

Q: COc1cc(-c2ccc([C@H]3CCc4ccc([C@H](C5CC5)[C@H](C)C(=O)O)cc4O3)cc2CN2CCC2(C)C)c(F)cn1 [Example 156] was tested. Which pEC50 did it give?
A: 8.08

Q: COc1cc(-c2ccc(C3CCc4ccc([C@H](C5CC5)[C@H](C)C(=O)O)cc4O3)cc2CN2CCC3(CCO3)C2)c(F)cn1 (some centres unmarked) [Example 54] was tested. Which pEC50 did it give?
A: 7.89

Q: COc1cc(-c2ccc(C3CCc4ccc([C@H](C5CC5)[C@H](C)C(=O)O)cc4O3)cc2CN2CC[C@@H](F)C2)c(F)cn1 (single isomer, unassigned) [Example 23] was tested. Which pEC50 did it give?
A: 8.77

Q: COc1cc(-c2ccc(C3CCc4ccc([C@H](C5CC5)[C@H](C)C(=O)O)cc4O3)cc2CN2CC(C)(OC)C2)c(F)cn1 (mixture of isomers) [Example 73] was tested. Which pEC50 did it give?
A: 8.09

Q: CCN(CC)Cc1cc([C@H]2CCc3ccc([C@H](C4CC4)[C@H](C)C(=O)O)cc3O2)ccc1-c1cc(OC)ncc1F [Example 145] was tested. Which pEC50 did it give?
A: 8.57

Q: How did the pEC50 turn out when COc1cc(-c2ccc(C3CCc4ccc([C@H](C5CC5)[C@H](C)C(=O)O)cc4O3)cc2CN(C)CC(F)(F)F)c(F)cn1 (single isomer, unassigned) [Example 22] was run?
A: 9.34

Q: COc1cc(-c2ccc([C@H]3CCc4ccc([C@H](C5CC5)[C@H](C)C(=O)O)cc4O3)cc2[C@H](C)N(C)C)c(F)cn1 [Example 82, (2S,3R)-3-cyclopropyl-3-((R)-2-(3-((S)-1-(dimethylamino)ethyl)-4-(5-fluoro-2-methoxypyridin-4-yl)phenyl)chroman-7-yl)-2-methylpropanoic acid] was tested. Which pEC50 did it give?
A: 7.89

Q: With COc1cc(-c2ccc(C3CCc4ccc([C@H](C5CC5)[C@H](C)C(=O)O)cc4O3)cc2CN2CC(F)(F)C2)c(F)cn1 (mixture of isomers) [Example 61] as the molecule, how does the pEC50 read?
A: 8.70

Q: COc1cc(-c2ccc(C3CCc4ccc([C@H](C5CC5)[C@H](C)C(=O)O)cc4O3)cc2CN2CC[C@@H](F)C2)c(F)cn1 (single isomer, unassigned) [Example 24] was tested. Which pEC50 did it give?
A: 8.66

Q: How did the pEC50 turn out when COc1cc(-c2ccc(C3CCc4ccc([C@H](C5CC5)[C@H](C)C(=O)O)cc4O3)cc2[C@@H](C)N(C)C)c(F)cn1 (stereo partly drawn) [Example 83, (2S,3R)-3-cyclopropyl-3-((R)-2-(3-((R)-1-(dimethylamino)ethyl)-4-(5-fluoro-2-methoxypyridin-4-yl)phenyl)chroman-7-yl)-2-methylpropanoic aid] was run?
A: 8.52

Q: With COc1cc(-c2ccc(C3CCc4ccc([C@H](C5CC5)[C@H](C)C(=O)O)cc4O3)cc2CN2CCC2C)c(F)cn1 (some centres unmarked) [Example 56] as the molecule, how does the pEC50 read?
A: 8.15

Q: COc1cc(-c2ccc(C3CCc4ccc([C@H](C5CC5)[C@H](C)C(=O)O)cc4O3)cc2CN2CCN(C)CC2)c(F)cn1 (mixture of isomers) [Example 13, (2S,3R)-3-cyclopropyl-3-(2-(4-(5-fluoro-2-methoxypyridin-4-yl)-3-(4-methylpiperazin-1-yl)methylphenyl)chroman-7-yl)-2-methylpropanoic acid] was tested. Which pEC50 did it give?
A: 6.68

Q: COc1cc(-c2ccc([C@H]3CCc4ccc([C@H](C5CC5)[C@H](C)C(=O)O)cc4O3)cc2CN2CCCC[C@@H]2C)c(F)cn1 [Example 168] was tested. Which pEC50 did it give?
A: 8.54

Q: How did the pEC50 turn out when CCN(CC)Cc1cc([C@@H]2CCc3ccc([C@H](C4CC4)[C@H](C)C(=O)O)cc3O2)ccc1-c1cc(OC)ncc1F [Example 159] was run?
A: 8.48

Q: How did the pEC50 turn out when COC[C@H]1CC[C@H](COC)N1Cc1cc(C2CCc3ccc([C@H](C4CC4)[C@H](C)C(=O)O)cc3O2)ccc1-c1cc(OC)ncc1F (some centres unmarked) [Example 65] was run?
A: 8.70

Q: COc1cc(-c2ccc(C3CCc4ccc([C@H](C5CC5)[C@H](C)C(=O)O)cc4O3)cc2CN2CC[C@H](O)C2)c(F)cn1 (some centres unmarked) [Example 7] was tested. Which pEC50 did it give?
A: 6.93

Q: COc1cc(-c2ccc(C3CCc4ccc([C@H](C5CC5)[C@H](C)C(=O)O)cc4O3)cc2CN(C)CC(F)(F)F)c(F)cn1 (some centres unmarked) [Example 20] was tested. Which pEC50 did it give?
A: 9.08

Q: COc1cc(-c2ccc([C@H]3CCc4ccc([C@H](C5CC5)[C@H](C)C(=O)O)cc4O3)cc2[C@H](C)N(C)C)c(F)cn1 [Example 80, (2S,3R)-3-cyclopropyl-3-((R)-2-(3-((S)-1-(dimethylamino)ethyl)-4-(5-fluoro-2-methoxypyridin-4-yl)phenyl)chroman-7-yl)-2-methylpropanoic acid] was tested. Which pEC50 did it give?
A: 7.96

Q: COc1cc(-c2ncc([C@H]3CCc4ccc([C@H](C5CC5)[C@H](C)C(=O)O)cc4O3)nc2CN2CCCC2)c(F)cn1 (single isomer, unassigned) [Example 110b] was tested. Which pEC50 did it give?
A: 6.86

Q: How did the pEC50 turn out when COc1cc(-c2ccc([C@@H]3CCc4ccc([C@H](C5CC5)[C@H](C)C(=O)O)cc4O3)cc2CN2CCCC(C)(C)C2)c(F)cn1 [Example 143] was run?
A: 9.52

Q: With COc1cc(-c2ccc(C3CCc4ccc([C@H](C5CC5)[C@H](C)C(=O)O)cc4O3)cc2CN(C2CC2)C2CC2)c(F)cn1 (mixture of isomers) [Example 52] as the molecule, how does the pEC50 read?
A: 9.46

Q: COc1cc(-c2ccc([C@@H]3CCc4ccc([C@H](C5CC5)[C@H](C)C(=O)O)cc4O3)cc2CN2[C@H](C)CC[C@H]2C)c(F)cn1 [Example 161] was tested. Which pEC50 did it give?
A: 9.22

Q: How did the pEC50 turn out when COc1cc(-c2ccc(C3CCc4ccc([C@H](C5CC5)[C@H](C)C(=O)O)cc4O3)cc2CN2CCC(OC)CC2)c(F)cn1 (mixture of isomers) [Example 45] was run?
A: 7.92

Q: COc1cc(-c2ccc(C3CCc4ccc([C@H](C5CC5)[C@H](C)C(=O)O)cc4O3)cc2CN2CCCCC23CC3)c(F)cn1 (mixture of isomers) [Example 62] was tested. Which pEC50 did it give?
A: 9.70 and 9.00

Q: With COc1cc(-c2ccc(C3CCc4ccc([C@H](C5CC5)[C@H](C)C(=O)O)cc4O3)cc2CN2CCCC(OC)C2)c(F)cn1 (some centres unmarked) [Example 48] as the molecule, how does the pEC50 read?
A: 8.44

Q: With COc1cc(-c2ccc([C@@H]3CCc4ccc([C@H](C5CC5)[C@H](C)C(=O)O)cc4O3)cc2CN2CCCCC2(C)C)c(F)cn1 [Example 152] as the molecule, how does the pEC50 read?
A: 9.30

Q: How did the pEC50 turn out when COc1cc(-c2ccc([C@@H]3CCc4ccc([C@H](C5CC5)[C@H](C)C(=O)O)cc4O3)cc2CN2CCCCC2)c(F)cn1 [Example 151] was run?
A: 8.70

Q: COc1cc(-c2ccc([C@H]3CCc4ccc([C@H](C5CC5)[C@H](C)C(=O)O)cc4O3)cc2[C@@H](C)N(C)C)c(F)cn1 [Example 81, (2S,3R)-3-cyclopropyl-3-((R)-2-(3-((R)-1-(dimethylamino)ethyl)-4-(5-fluoro-2-methoxypyridin-4-yl)phenyl)chroman-7-yl)-2-methylpropanoic acid] was tested. Which pEC50 did it give?
A: 8.40

Q: With COc1cc(-c2ccc(C3CCc4ccc([C@H](C5CC5)[C@H](C)C(=O)O)cc4O3)cc2CN2CC[C@H](S(C)(=O)=O)C2)c(F)cn1 (some centres unmarked) [Example 6] as the molecule, how does the pEC50 read?
A: 6.64

Q: COc1cc(-c2ccc(C3CCc4ccc([C@H](C5CC5)[C@H](C)C(=O)O)cc4O3)cc2CN2CCC2(C)C)c(F)cn1 (mixture of isomers) [Example 49] was tested. Which pEC50 did it give?
A: 8.40

Q: With COc1cc(-c2ccc([C@@H]3CCc4ccc([C@H](C5CC5)[C@H](C)C(=O)O)cc4O3)cc2CN2CCC(C)(C)CC2)c(F)cn1 [Example 155] as the molecule, how does the pEC50 read?
A: 8.74

Q: How did the pEC50 turn out when COc1cc(-c2ccc(C3CCc4ccc([C@H](C5CC5)[C@H](C)C(=O)O)cc4O3)cc2CN2CCC(F)(F)C2)c(F)cn1 (mixture of isomers) [Example 17] was run?
A: 9.15

Q: COc1cc(-c2ccc(C3CCc4ccc([C@H](C5CC5)[C@H](C)C(=O)O)cc4O3)cc2CN2CCC[C@H]2C)c(F)cn1 (some centres unmarked) [Example 50] was tested. Which pEC50 did it give?
A: 8.89

Q: How did the pEC50 turn out when COc1cc(-c2ccc([C@H]3CCc4ccc([C@H](C5CC5)[C@H](C)C(=O)O)cc4O3)cc2CN2CCC[C@@H]2C)c(F)cn1 [Example 136] was run?
A: 8.34

Q: COc1cc(-c2ccc(C3CCc4ccc([C@H](C5CC5)[C@H](C)C(=O)O)cc4O3)cc2CN2[C@H](C)CC[C@H]2C)c(F)cn1 (some centres unmarked) [Example 70] was tested. Which pEC50 did it give?
A: 9.30

Q: CCc1ccc(F)c(-c2ccc(C3CCc4ccc([C@H](C5CC5)[C@H](C)C(=O)O)cc4O3)cc2CN2CCCC2)c1 (mixture of isomers) [Example 75] was tested. Which pEC50 did it give?
A: 7.77

Q: How did the pEC50 turn out when COc1cc(-c2ccc(C3CCc4ccc([C@H](C5CC5)[C@H](C)C(=O)O)cc4O3)cc2CN2CCCC2)c(F)cn1 (single isomer, unassigned) [Example 9b] was run?
A: 8.47

Q: With COc1cc(-c2ccc(C3CCc4ccc([C@H](C5CC5)[C@H](C)C(=O)O)cc4O3)cc2CN2CC3CC2CO3)c(F)cn1 (some centres unmarked) [Example 43] as the molecule, how does the pEC50 read?
A: 8.68

Q: COc1cc(-c2ccc(C3CCc4ccc([C@H](C5CC5)[C@H](C)C(=O)O)cc4O3)cc2CN2C3CCC2CC3)c(F)cn1 (some centres unmarked) [Example 69] was tested. Which pEC50 did it give?
A: 8.59

Q: With COC[C@H]1CCCN1Cc1cc(C2CCc3ccc([C@H](C4CC4)[C@H](C)C(=O)O)cc3O2)ccc1-c1cc(OC)ncc1F (some centres unmarked) [Example 44] as the molecule, how does the pEC50 read?
A: 8.74
